Data as given in patent publication EP3095787A1, “[…] ACTIVE COMPOUNDS AS DAG-LIPASE INHIBITORS” (Universiteit Leiden, priority 2015, dated 2016).

Tests used:
recombinant human MAGL = target: T1, recombinant human MAGL (Homo sapiens, UniProt Q99685); experiment: MAGL assay (glycerol detection, 2-AG as substrate); format: biochemical
T1 construct: expressed in transfected cells; membranes overexpressing MAGL
T1 sequence (Q99685 1-303): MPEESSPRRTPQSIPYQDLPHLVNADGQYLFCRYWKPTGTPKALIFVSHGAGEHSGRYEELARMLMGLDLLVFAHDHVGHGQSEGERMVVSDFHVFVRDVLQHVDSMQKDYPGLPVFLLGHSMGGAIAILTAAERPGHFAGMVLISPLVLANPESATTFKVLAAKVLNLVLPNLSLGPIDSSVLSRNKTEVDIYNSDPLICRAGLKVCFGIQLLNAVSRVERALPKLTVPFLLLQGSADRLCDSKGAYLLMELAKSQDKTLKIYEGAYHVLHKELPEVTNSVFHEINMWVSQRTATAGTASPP
Source text: This methodology allows for a more accurate quantification avoiding band overlap (as observed with gel-based assay) and allows screening over a broader range of specified serine hydrolases. Equal isotopic labeling and detection of light and medium peptides from proteins targeted by both ABPs (Figure 2G) were validated. Next, to investigate the selectivity of inventive compound 25 in this chemoproteomic assay was set out. […] In addition, the inventors tested compound 25 in biochemical assays using recombinant human MAGL and in a cannabinoid CB1 receptor radioligand displacement assay. A significant interaction ([…]) with these proteins of the endocannabinoid system could not be found. The CB1 displacement assays were performed as described below.
MAGL assay was performed as described below. Standard assays were performed under similar conditions as for the glycerol detection besed DAGL-α activity assay , but at a final protein concentration of 1.5 µg/mL (0.3 µg MAGL-overexpressing membranes per well) and with 2-arachidonoylglycerol (2-AG) as the substrate. 2-AG was directly added from a stock solution in acetonitrile and no Triton X-100 was added. Fluorescence was measured in 5 min intervals for 60 min. Final assay concentrations: 0.2 U/mL GK, GPO and HRP, 0.125 mM ATP, 10 µM Amplifu™Red, 25 µM 2-AG, 5% DMSO, 0.5% ACN in a total volume of 200 µL.

Neuro2A cells = experiment: Targeted lipidomics in Neuro2A cells; format: cell-based, mouse; conditions: in situ treatment 1h, 37 °C; n=4
Method: To test the cellular activity of inventive compound 25, the inventor used Neuro2A cells, which is a mouse neuroblastoma cell line known to express both DAGL-α and DAGL-β. In a targeted lipidomics experiment the effect of inventive compound 25 on the cellular levels of 2-AG and anandamide was determined.
Neuro2A cells were cultured as described above. Before inhibitor treatment, the culture medium was removed and the cells were washed with warm (37 °C) serum free medium (3x). The cells were treated with vehicle (DMSO) or inhibitor for 1h at 37 °C in serum free medium. […]
Endocannabinoids were measured using a chip-based nano liquid chromatography (LC) system coupled to a triple quadrupole mass spectrometer. […]
A 6440 Triple quadrupole equipped with a nonoESI source operating in positive mode (Agilent technologies, Walborn, Germany) was used for MS detection. […] Quantification was obtained using static MRM (multiple reaction monitoring) mode of the transistions at m/z 379.3 → 287.2 for 2AG, 348.3 → 62.2 for AEA and 387.3 → 294.2 for 2AGd8, 356.3 → 62.2 for AEAd8 (internal standards). […] Raw MS data were processes using mass hunter quantitative analysis work station (Agilent technologies). AEA and 2AG was quantified by using a matrix matched internal standard calibration curve. […]

Ki (recombinant human MAGL): > 10 µM
Structure (SMILES): Cc1ccc(-c2cnc3nc(C(=O)CCCCCc4ccccc4)oc3c2)cc1 [Compound 25, 1-(6-(p-Tolyl)oxazolo[4,5-b]pyridin-2-yl)-6-phenylhexan-1-one]
anandamide levels (Neuro2A cells): constant | basal 2-AG levels (Neuro2A cells): dose dependently decreased
